Source: US12643910B2, “Substituted pyrazolo[3,4-b]pyridines as ectonucleotide pyrophosphatase/phosphodiesterase 1 (ENPP1) modulators” (SANFORD BURNHAM PREBYS MEDICAL DISCOVERY INSTITUTE, priority 2019, dated 2026)

Target: T1, human ENPP1 (Homo sapiens, UniProt P22413)
T1 construct: made in house
T1 sequence (P22413 1-925): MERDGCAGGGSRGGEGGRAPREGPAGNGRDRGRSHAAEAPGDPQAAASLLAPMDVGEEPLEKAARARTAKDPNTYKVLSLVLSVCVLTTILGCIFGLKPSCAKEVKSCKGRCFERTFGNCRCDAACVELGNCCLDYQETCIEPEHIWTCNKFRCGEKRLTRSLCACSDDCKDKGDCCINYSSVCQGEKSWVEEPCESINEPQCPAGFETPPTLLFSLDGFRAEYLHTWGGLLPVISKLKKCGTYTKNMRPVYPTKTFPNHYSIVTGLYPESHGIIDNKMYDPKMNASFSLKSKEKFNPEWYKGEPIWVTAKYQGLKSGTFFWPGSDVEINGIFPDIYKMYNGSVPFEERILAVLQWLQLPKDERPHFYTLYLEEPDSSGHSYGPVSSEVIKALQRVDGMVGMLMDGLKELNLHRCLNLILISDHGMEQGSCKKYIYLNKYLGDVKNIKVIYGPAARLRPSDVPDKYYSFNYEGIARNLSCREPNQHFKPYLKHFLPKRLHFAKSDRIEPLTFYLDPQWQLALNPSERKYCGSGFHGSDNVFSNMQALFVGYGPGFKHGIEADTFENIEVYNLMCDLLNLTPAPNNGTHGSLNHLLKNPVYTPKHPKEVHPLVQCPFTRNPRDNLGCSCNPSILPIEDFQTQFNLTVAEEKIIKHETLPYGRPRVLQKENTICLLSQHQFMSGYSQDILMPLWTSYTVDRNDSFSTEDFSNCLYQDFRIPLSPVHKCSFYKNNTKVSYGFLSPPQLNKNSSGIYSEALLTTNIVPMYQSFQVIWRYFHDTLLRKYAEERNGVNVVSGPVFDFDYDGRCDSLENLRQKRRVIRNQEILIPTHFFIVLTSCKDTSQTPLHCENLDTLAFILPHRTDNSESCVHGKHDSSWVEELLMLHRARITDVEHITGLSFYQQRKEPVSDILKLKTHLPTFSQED
Assay: ENPP1 assay with ATP substrate (Transcreener AMP2/GMP2 TR-FRET)
Type: biochemical
Details: 1 hour at room temperature
Excerpt: Example B1: ENPP1 Assay with ATP Substrate
Ectonucleotide pyrophosphatase/phosphodiesterase 1 (ENPP1) hydrolyzes ATP, breaking it down into 5′-AMP and pyrophosphate. The 5′-AMP formed from the reaction is detected by Transcreener® AMP2/GMP2 TR-FRET Assay (Bellbrook), containing AMP-tracer (HiLyte 647) and anti-AMP Terbium (Tb) donor. 5′-AMP generated in the reaction competes with AMP-tracer for binding with Anti-AMP Tb donor, and decreases TR-FRET signal.
Different concentrations of ENPP1 inhibitors are added to dry assay plate, followed by 2 μl 300 nM ATP. The reaction is initiated with the addition of 2 μl 8.5 μM human ENPP1 (generated by SBP Protein group). The assay reaction mixture contains a buffer of 50 mM Tris, pH 7.5, 1 mM TCEP, 2 mM MgCl2, 0.005% Tween 20, and 1% DMSO. The reaction is stopped after 1 hour at room temperature by adding 2 μL of 2 nM AMP-tracer and 2 μl of 2 nM Anti-AMP Tb donor in the 50 mM Tris, pH 7.5, buffer containing 20 mM EDTA and 0.1% Prionex. After 2 hour additional incubation at room temperature, the generated signal is measured using BMG Lab PHERASTAR instrument. 100% activity control samples (containing enzyme, substrate, buffer: MAX) and no enzyme control samples (containing substrate and buffer: MIN) are utilized to calculate percent inhibition (%) for each compound concentration well (COMPOUND) as follows.
The IC50 values are determined by fitting the inhibition curves with 2-parameter variable slope model in Graphpad Prism software using percent inhibition vs compound concentration data: […]

Structure (SMILES) | IC50 [µM]
c1ccc(-c2csc3nc(-c4ccccn4)nc(NCc4ccccn4)c23)cc1 [Example 1.2, (5-Phenyl-2-pyridin-2-yl-thieno[2,3-d]pyrimidin-4-yl)-pyridin-2-ylmethyl-amine] | > 20
Cc1ccncc1CCCNC1CCN(c2nc(Cl)nc3c(C)csc23)CC1 [Example 3.68, 1-(2-Chloro-7-methylthieno[3,2-d]pyrimidin-4-yl)-N-(3-(4-methylpyridin-3-yl)propyl)piperidin-4-amine] | 1 to 20
O=C(CCc1ccc(F)cc1)NC1CCN(c2ncnc3c(Cl)csc23)CC1 [Example 3.64, N-(1-(7-Chlorothieno[3,2-d]pyrimidin-4-yl)piperidin-4-yl)-3-(4-fluorophenyl)propanamide] | 1 to 20
Cn1ncc2c(NCc3ccccn3)nc(-c3ccccn3)nc21 [Example 2.19, 1-Methyl-6-(pyridin-2-yl)-N-(pyridin-2-ylmethyl)-1H-pyrazolo[3,4-d]pyrimidin-4-amine] | > 20
Cc1csc2nc(-c3ccccn3)nc(NCc3ccc(S(N)(=O)=O)s3)c12 [Example 1.37, 5-(((5-Methyl-2-(pyridin-2-yl)thieno[2,3-d]pyrimidin-4-yl)amino)methyl)thiophene-2-sulfonamide] | > 20
Cc1ccncc1CCCNC1CCN(c2nc(NCCO)nc3c(C)csc23)CC1 [Example 3.71, 2-((7-Methyl-4-(4-((3-(4-methylpyridin-3-yl)propyl)amino)piperidin-1-yl)thieno[3,2-d]pyrimidin-2-yl)amino)ethanol] | 0.1 to 1
Cn1ncc2c(NCc3ccco3)nc(-c3ccccn3)nc21 [Example 2.23, N-(Furan-2-ylmethyl)-1-methyl-6-(pyridin-2-yl)-1H-pyrazolo[3,4-d]pyrimidin-4-amine] | > 20
Cn1ncc2c(NCc3cccnc3)nc(-c3ccccn3)nc21 [Example 2.18, 1-Methyl-6-(pyridin-2-yl)-N-(pyridin-3-ylmethyl)-1H-pyrazolo[3,4-d]pyrimidin-4-amine] | > 20
Cc1ccncc1CCCNC1CCN(c2ncnc3ccsc23)CC1 [Example 3.63, N-(3-(4-Methylpyridin-3-yl)propyl)-1-(thieno[3,2-d]pyrimidin-4-yl)piperidin-4-amine] | 1 to 20
Cn1ncc2c(NCc3cccs3)nc(-c3ccccn3)nc21 [Example 2.21, 1-Methyl-6-(pyridin-2-yl)-N-(thiophen-2-ylmethyl)-1H-pyrazolo[3,4-d]pyrimidin-4-amine] | > 20
Cc1csc2c(N3CCC(NCC4CC4c4ccncc4)CC3)ncnc12 (stereo not shown) [Example 3.81, 1-(7-Methylthieno[3,2-d]pyrimidin-4-yl)-N-((2-(pyridin-4-yl)cyclopropyl)methyl)piperidin-4-amine] | 0.1 to 1
Cn1ncc2c(NCc3ccc(S(N)(=O)=O)cc3)nc(-c3cccnc3)nc21 [Example 2.15, 4-(((1-Methyl-6-(pyridin-3-yl)-1H-pyrazolo[3,4-d]pyrimidin-4-yl)amino)methyl)-benzenesulfonamide] | 1 to 20
NS(=O)(=O)c1cccc(CNc2nc(-c3ccccn3)nc3scc(-c4ccccc4)c23)c1 [Example 1.12, 3-[(5-Phenyl-2-pyridin-2-yl-thieno[2,3-d]pyrimidin-4-ylamino)-methyl]-benzenesulfonamide] | 1 to 20
COc1ccc(CNc2nc(-c3ccccn3)nc3c2cnn3C)cc1 [Example 2.11, N-(4-Methoxybenzyl)-1-methyl-6-(pyridin-2-yl)-1H-pyrazolo[3,4-d]pyrimidin-4-amine] | > 20
Cn1ncc2c(NCc3ccc(S(N)(=O)=O)cc3)nc(-c3ccccc3)nc21 [Example 2, 4-(((1-Methyl-6-phenyl-1H-pyrazolo[3,4-d]pyrimidin-4-yl)amino)methyl)-benzenesulfonamide] | 1 to 20
CN(c1nc(-c2ccccn2)nc2scc(-c3ccccc3)c12)C1CCCC1 [Example 1.36, Cyclopentyl-methyl-(5-phenyl-2-pyridin-2-yl-thieno[2,3-d]pyrimidin-4-yl)-amine] | > 20

Structure (SMILES) | IC50 [µM]
Cc1csc2c(N3CCC(NC(=O)C4CC4c4ccccc4)CC3)ncnc12 (stereo not shown) [Example 3.79, N-(1-(7-Methylthieno[3,2-d]pyrimidin-4-yl)piperidin-4-yl)-2-phenylcyclopropanecarboxamide] | 1 to 20
COc1nc(N2CCC(NCCCc3cnccc3C)CC2)c2scc(C)c2n1 [Example 3.70, 1-(2-Methoxy-7-methylthieno[3,2-d]pyrimidin-4-yl)-N-(3-(4-methylpyridin-3-yl)propyl)piperidin-4-amine] | 0.1 to 1
Cn1ncc2c(NCc3ccncc3)nc(-c3ccccn3)nc21 [Example 2.17, 1-Methyl-6-(pyridin-2-yl)-N-(pyridin-4-ylmethyl)-1H-pyrazolo[3,4-d]pyrimidin-4-amine] | 1 to 20
CNc1nc(N2CCC(NCCCc3cnccc3C)CC2)c2scc(C)c2n1 [Example 3.69, N,7-Dimethyl-4-(4-((3-(4-methylpyridin-3-yl)propyl)amino)piperidin-1-yl)thieno[3,2-d]pyrimidin-2-amine] | 1 to 20
Cn1ncc2c(NCc3ccccc3)nc(-c3ccccn3)nc21 [Example 2.9, N-Benzyl-1-methyl-6-(pyridin-2-yl)-1H-pyrazolo[3,4-d]pyrimidin-4-amine] | > 20
Cc1csc2c(N3CCC(NCCCc4ccncc4)CC3)nc(Cl)nc12 [Example 3.65, 1-(2-Chloro-7-methylthieno[3,2-d]pyrimidin-4-yl)-N-(3-(pyridin-4-yl)propyl)piperidin-4-amine] | 1 to 20
Cn1ncc2c(NCc3ccc(Cl)cc3)nc(-c3ccccn3)nc21 [Example 2.13, N-(4-Chlorobenzyl)-1-methyl-6-(pyridin-2-yl)-1H-pyrazolo[3,4-d]pyrimidin-4-amine] | > 20
Cn1ncc2c(NCc3cccc(F)c3)nc(-c3ccccn3)nc21 [Example 2.12, N-(3-Fluorobenzyl)-1-methyl-6-(pyridin-2-yl)-1H-pyrazolo[3,4-d]pyrimidin-4-amine] | > 20
Cc1csc2c(N3CCC(NCC4CC4c4ccncc4)CC3)nc(Cl)nc12 (stereo not shown) [Example 3.80, 1-(2-Chloro-7-methylthieno[3,2-d]pyrimidin-4-yl)-N-((2-(pyridin-4-yl)cyclopropyl)methyl)piperidin-4-amine] | 1 to 20
Cn1ncc2c(NCc3ccc(S(N)(=O)=O)cc3)nc(-c3ccncc3)nc21 [Example 2.16, 4-(((1-Methyl-6-(pyridin-4-yl)-1H-pyrazolo[3,4-d]pyrimidin-4-yl)amino)methyl)-benzenesulfonamide] | > 20
COc1nc(N2CCC(NCCCc3ccncc3)CC2)c2scc(C)c2n1 [Example 3.66, 1-(2-Methoxy-7-methylthieno[3,2-d]pyrimidin-4-yl)-N-(3-(pyridin-4-yl)propyl)piperidin-4-amine] | 1 to 20
Cn1ncc(CNc2nc(-c3ccccn3)nc3scc(-c4ccccc4)c23)c1N [Example 1.34, (5-Amino-1-methyl-1H-pyrazol-4-ylmethyl)-(5-phenyl-2-pyridin-2-yl-thieno[2,3-d]pyrimidin-4-yl)-amine] | 1 to 20
Cc1ccc(CNc2nc(-c3ccccn3)nc3c2cnn3C)o1 [Example 2.22, 1-Methyl-N-((5-methylfuran-2-yl)methyl)-6-(pyridin-2-yl)-1H-pyrazolo[3,4-d]pyrimidin-4-amine] | > 20
c1ccc(-c2csc3nc(-c4ccccn4)nc(NCc4ccco4)c23)cc1 [Example 1.35, Furan-2-ylmethyl-(5-phenyl-2-pyridin-2-yl-thieno[2,3-d]pyrimidin-4-yl)-amine] | 1 to 20
Cc1csc2c(N3CCC(NC/C=C/c4ccncc4)CC3)ncnc12 [Example 3.76, (E)-1-(7-methylthieno[3,2-d]pyrimidin-4-yl)-N-(3-(pyridin-4-yl)allyl)piperidin-4-amine] | 0.1 to 1
